Results from paper PMC12052742, “Engineering a newly identified alcohol dehydrogenase from Sphingobium Sp. for efficient utilization of nicotinamide cofactors biomimetics” (Bioresources and Bioprocessing, 2025).

Columns and labels:
Assay type in all cases: biochemical, Sphingobium sp. SYK-6
SpADH2 variant A290I = experiment: Cofactor spectrum (HPLC specific activity), variant A290I; settings: 1a 5 mM, cofactor 7.5 mM, pH 7.5, 30℃, 5 µg enzyme, 1 h
Method: (§1) Fig. 8 Cofactor spectrums of SpADH2 and its variants. The darkness of color for each cofactor stands for the activity. For each cofactor cube, top left: WT, top right: H43L, bottom left: A290I, bottom right: H43L/A290I. (a) Natural cofactors and NMN^+ are shown in purple. (b) tsNCBs are shown in cyan. The evaluation of cofactor spectrum was carried out under following conditions: 50 mM PBS buffer (pH 7.5) and 30℃, with 1a (5 mM) as substrate and different cofactors (7.5 mM) as cofactor. For NAD(P)^+ and NMN^+, 0.05 µg enzyme was added, and for tsNCBs, 5 µg enzyme was added. The results were analyzed by HPLC after 1 h reaction
(§2) Specific activity of SpADH2 in cofactor spectrum study was determined by HPLC analysis. PBS (pH 7.5) buffer was pre-heated at 30°C for 15 min. For NAD(P)^+ and NMN^+, 0.05 µg SpADH2 was added to PBS buffer (100 µL). For tsNCBs, 5 µg SpADH2 was added. A final concentration of 7.5 mM cofactor was added to the reaction mixture. Finally, a final concentration of 5 mM substrate was added to start the reaction. The reactions were conducted at 30°C.
(§3) One unit of enzyme activity is defined as the amount of enzyme required to form 1 µmol 1b per minute at pH 7.5 and 30°C. Same reaction without cofactor was used as a blank control.

SpADH2 variant A47G = experiment: Activity of variant in oxidation of syringyl alcohol with p-BANA^+ (Fig. 5), A47G; settings: cofactor p-BANA^+, substrate syringyl alcohol
Method: In the first round of screening, saturation mutagenesis was constructed for six positions (W114, T177, G172, G316, A47, and R227). […] Therefore, in the second round of mutagenesis, six additional sites within the 5 Å range of the cofactor ribose (H43, V202, T265, V288, G289, and A290) were selected for saturation mutagenesis screening (Fig. 6c and Fig. S6). Three beneficial mutations were identified. […] Subsequently, combinatorial mutagenesis was performed, resulting in 11 double variants and 3 triple variants.
Fig. 5 Relative activity of SpADH2 and its variants in oxidation of syringyl alcohol when utilizing p-BANA^+ as cofactor
In preliminary screening by spectrophotometric analysis, PBS (pH 7.5) buffer (50 µL) in a 96-well plate was pre-warmed at 30°C for 15 min, and a final concentration of 5 mM p-BANA^+ and 1 mM substrate syringyl alcohol were added, and 50 µL of crude enzyme were add to each well to start the reaction, with WT as control. The reaction mixture was incubated at 30°C for 1 h, followed by addition of fluorescent probes in a final concentration of 0.2 mM, and was subjected to determination under 537 nm as described above.

[1] = system: SpADH2 variants (H43L, A290I, H43L/A290I); experiment: Cofactor spectrum (HPLC specific activity), all variants together; settings: 1a 5 mM, cofactor 7.5 mM, pH 7.5, 30℃
Method: as §1, §2, §3

`NC(=O)c1ccc[n+](Cc2ccc(C(=O)O)cc2)c1` [p-BANA^+, para-3-carbamoyl-1-(4-carboxybenzyl)pyridin-1-ium] was tested, and the “catalytic activity with the tsNCB as cofactor” value (SpADH2 variant A290I) was 160.82 U/g, the “fold higher activity than WT” value (SpADH2 variant A47G) was 1.3 fold and the “catalytic activity of all variants with the cofactor (in words)” value [1] was “highest activity”.
